Results from patent US20060079566A1, “PDK-1/Akt signaling inhibitors” (priority 2003, published 2006).
Where two headings read alike, the source gives them in different places.

Experiments:
recombinant PDK-1 = target: T1, recombinant PDK-1 (Homo sapiens, UniProt O15530); assay: PDK-1 kinase activity (Upstate kit, SGK-coupled, cell-free); assay type: biochemical
T1 construct: purchased Upstate (Lake Placid, N.Y.)
T1 sequence (O15530 1-556): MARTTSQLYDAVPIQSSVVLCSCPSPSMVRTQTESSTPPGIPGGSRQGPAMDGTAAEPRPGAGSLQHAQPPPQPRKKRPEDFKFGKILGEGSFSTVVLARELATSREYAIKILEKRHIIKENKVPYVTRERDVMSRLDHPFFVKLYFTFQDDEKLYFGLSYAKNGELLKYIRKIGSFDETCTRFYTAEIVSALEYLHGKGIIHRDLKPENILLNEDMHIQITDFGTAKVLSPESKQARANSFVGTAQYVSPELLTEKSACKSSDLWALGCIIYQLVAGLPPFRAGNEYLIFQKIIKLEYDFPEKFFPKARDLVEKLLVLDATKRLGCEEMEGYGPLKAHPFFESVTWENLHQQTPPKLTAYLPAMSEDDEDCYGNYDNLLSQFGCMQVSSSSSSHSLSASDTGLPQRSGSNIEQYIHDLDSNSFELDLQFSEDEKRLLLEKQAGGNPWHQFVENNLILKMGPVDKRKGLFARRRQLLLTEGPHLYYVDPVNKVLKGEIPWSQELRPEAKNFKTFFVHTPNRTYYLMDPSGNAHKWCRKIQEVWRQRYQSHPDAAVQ
Experimental: PDK-1 kinase activity This in vitro assay was performed using a PDK-1 kinase assay kit (Upstate, Lake Placid, N.Y.) according to the vendor's instructions. This cell-free assay is based on the ability of recombinant PDK-1, in the presence of DMSO vehicle or the test agent, to activate its downstream kinase serum- and glucocorticoid-regulated kinase (SGK.) which, in turn, phosphorylates the Akt/SGK-specific peptide substrate RPRAATF with [γ-^32]-ATP. […] The reported values represent the means of two independent determinations.

PC-3 cells = assay: Cell viability analysis (MTT) in PC-3 cells; assay type: cell-based, human; conditions: Homo sapiens; inducing apoptotic death in PC-3 cells / PC-3 cell viability; read-out: IC50 PC-3
Experimental: Cell Culture PC-3 (p53−/−) human androgen-nonresponsive prostate cancer cells were purchased from the American […] (Manassas, Va.). Cells were cultured in RPMI 1640 medium (Gibco, Grand Island, N.Y.) supplemented with 10% fetal bovine serum (FBS; Gibco) at 37° C. in a humidified incubator containing 5% CO2.
Cell viability analysis The effect of 4-[5-(4-methylphenyl)-3-(trifluoromethyl)-1H-pyrazol-1-yl]benzenesulfonamide and its derivatives on PC-3 cell viability was assessed by using the MTT {[3-(4,5-dimethylthiazol-2-yl)-2,5-diphenyl-2H-tetrazolium bromide]} assay in six replicates. Cells were grown in 10% FBS-supplemented RPMI 1640 medium in 96-well, flat bottomed plates for 24 h, and were exposed to various concentrations of compounds 1-36 dissolved in DMSO (final concentration ≦0.1%) in 1% serum-containing RPMI 1640 medium for different time intervals. Controls received DMSO vehicle at a concentration equal to that in drug-treated cells. The medium was removed, replaced by 200 μl of 0.5 mg/ml of MTT in 10% FBS-containing RPMI-1640 medium, and cells were incubated in the CO2 incubator at 37° C. for 2 h. Supernatants were removed from the wells, and the reduced MTT dye was solubilized in 200 μL/well DMSO. Absorbance at 570 nm was determined on a plate reader.

[1] = inhibiting recombinant PDK-1 kinase activity, read-out: IC50 PDK-1

| SMILES | IC50 (recombinant PDK-1; [1]) [µM] | IC50 (PC-3 cells) [µM] | IC50 (recombinant PDK-1) [µM] |
| --- | --- | --- | --- |
| Cc1ccc(-c2cc(C(F)(F)F)nn2-c2ccc(S(N)(=O)=O)cc2)cc1 [Comparative Compound, 4-[5-(4-methylphenyl)-3-(trifluoromethyl)-1H-pyrazol-1-yl]benzenesulfonamide, reference compound] | 48 | 30 | – |
| NS(=O)(=O)c1ccc(-n2nc(C(F)(F)F)cc2-c2ccc(CCBr)cc2)cc1 [Compound 37, 4-[5-(4-(2-bromoethyl)phenyl)-3-(trifluoromethyl)-1H-pyrazol-1-yl]benzenesulfonamide] | – | 18 | 42 |
| NS(=O)(=O)c1ccc(-n2nc(C(F)(F)F)cc2-c2ccc(CCCBr)cc2)cc1 [Compound 38, 4-[5-(4-(3-bromopropyl)phenyl)-3-(trifluoromethyl)-1H-pyrazol-1-yl]benzenesulfonamide] | – | 17 | 38 |
| [N-]=[N+]=NCCc1ccc(-c2cc(C(F)(F)F)nn2-c2ccc(S(N)(=O)=O)cc2)cc1 [Compound 39, 4-[5-(4-(2-azidoethyl)phenyl)-3-(trifluoromethyl)-1H-pyrazol-1-yl]benzenesulfonamide] | – | 17 | 32 |
| [N-]=[N+]=NCCCc1ccc(-c2cc(C(F)(F)F)nn2-c2ccc(S(N)(=O)=O)cc2)cc1 [Compound 40, 4-[5-(4-(3-azidopropyl)phenyl)-3-(trifluoromethyl)-1H-pyrazol-1-yl]benzenesulfonamide] | – | 18 | 34 |
| CCCCc1ccc(-c2cc(C(F)(F)F)nn2-c2ccc(S(N)(=O)=O)cc2)cc1 [Compound 41, 4-[5-(4-butylphenyl)-3-(trifluoromethyl)-1H-pyrazol-1-yl]benzenesulfonamide] | – | 9 | 20 |
| CC(C)(C)c1ccc(-c2cc(C(F)(F)F)nn2-c2ccc(S(N)(=O)=O)cc2)cc1 [Compound 42, 4-[5-(4-t-butylphenyl)-3-(trifluoromethyl)-1H-pyrazol-1-yl]benzenesulfonamide] | – | 18 | 34 |
| NS(=O)(=O)c1ccc(-n2nc(C(F)(F)F)cc2-c2c[nH]c3ccccc23)cc1 [Compound 44, 4-[5-(3-indolyl)-3(trifluoromethyl)-1H-pyrazol-1-yl]benzenesulfonamide] | – | 31 | 65 |
| NS(=O)(=O)c1ccc(-n2nc(C(F)(F)F)cc2-c2ccc(-c3ccccc3)cc2)cc1 [Compound 45] | 21 | 11 | – |
| NS(=O)(=O)c1ccc(-n2nc(C(F)(F)F)cc2-c2ccc(-c3ccc(Cl)cc3)cc2)cc1 [Compound 46, 4-[5-(4′-chloro[1,1′-biphenyl]-4-yl)-3-(trifluoromethyl)-1H-pyrazol-1-yl]benzenesulfonamide] | – | 9 | 22 |
| NS(=O)(=O)c1ccc(-n2nc(C(F)(F)F)cc2-c2ccc(-c3cc(Cl)cc(Cl)c3)cc2)cc1 [Compound 47, 4-[5-(3′,5′-dichloro[1,1′-biphenyl]-4-yl)-3-(trifluoromethyl)-1H-pyrazol-1-yl]benzenesulfonamide] | – | 10 | 18 |
| NS(=O)(=O)c1ccc(-n2nc(C(F)(F)F)cc2-c2ccc(-c3cccc(Cl)c3Cl)cc2)cc1 [Compound 48, 4-[5-(2′,3′-dichloro[1,1′-biphenyl]-4-yl)-3-(trifluoromethyl)-1H-pyrazol-1-yl]benzenesulfonamide] | 23 | 10 | – |
| NS(=O)(=O)c1ccc(-n2nc(C(F)(F)F)cc2-c2ccc(-c3cc(Cl)c(Cl)cc3Cl)cc2)cc1 [Compound 49, 4-[5-(2′,4′,5′-trichloro[1,1′-biphenyl]-4-yl)-3(trifluoromethyl)-1H-pyrazol-1-yl]benzenesulfonamide] | – | 5 | 9 |
| Cc1ccc(-c2ccc(-c3cc(C(F)(F)F)nn3-c3ccc(S(N)(=O)=O)cc3)cc2)cc1 [Compound 50, 4-[5-(4′-methyl[1,1′-biphenyl]4-yl)-3-(trifluoromethyl)-1H-1-yl]benzenesulfonamide] | – | 8 | – |
| NS(=O)(=O)c1ccc(-n2nc(C(F)(F)F)cc2-c2ccc(-c3ccc(CBr)cc3)cc2)cc1 [Compound 52, 4-[5-(4′-bromomethyl[1,1′-biphenyl]-4-yl)-3-(trifluoromethyl)-1H-1-yl]benzenesulfonamide] | 20 | 11 | – |
| Cc1cc(C)cc(-c2ccc(-c3cc(C(F)(F)F)nn3-c3ccc(S(N)(=O)=O)cc3)cc2)c1 [Compound 53, 4-[5-(3′,5′-dimethyl[1,1;-biphenyl]-4-yl)-3-(trifluoromethyl)-1H-1-yl]benzenesulfonamide] | 17 | – | – |
| CCCCc1ccc(-c2ccc(-c3cc(C(F)(F)F)nn3-c3ccc(S(N)(=O)=O)cc3)cc2)cc1 [Compound 54, 4-[5-(4′-butyl[1,1′-biphenyl]-4-yl)-3-(trifluoromethyl)-1H-1-yl]benzenesulfonamide] | 32 | 15 | – |
| CC(C)(C)c1ccc(-c2ccc(-c3cc(C(F)(F)F)nn3-c3ccc(S(N)(=O)=O)cc3)cc2)cc1 [Compound 55, 4-[5-(4′-tert-buty[1,1′-biphenyl]-4-yl)-3-(trifluoromethyl)-1H-1-yl]benzenesulfonamide] | 32 | 15 | – |
| NS(=O)(=O)c1ccc(-n2nc(C(F)(F)F)cc2-c2ccc(Cc3ccccc3)cc2)cc1 [Compound 56, 4-[5-(4-(phenylmethyl)phenyl)-3-(trifluoromethyl)-1H-1-yl]benzenesulfonamide] | – | 8 | – |
| NS(=O)(=O)c1ccc(-n2nc(C(F)(F)F)cc2-c2ccc3c(c2)Cc2ccccc2-3)cc1 [Compound 57, 4-[5-(9H-fluoren-2-yl)-3-(trifluoromethyl)-1H-1-yl]benzenesulfonamide] | 16 | – | – |
| NS(=O)(=O)c1ccc(-n2nc(C(F)(F)F)cc2-c2c3ccccc3cc3ccccc23)cc1 [Compound 58, 4-[5-(9-anthracenyl)-3-(trifluoromethyl)-1H-1-yl]benzenesulfonamide] | 12 | 7 | – |
| NS(=O)(=O)c1ccc(-n2nc(C(F)(F)F)cc2-c2cc3ccccc3c3ccccc23)cc1 [Compound 60, 4-[5-(9-phenanthrenyl)-3-(trifluoromethyl)-1H-1-yl]benzenesulfonamide] | – | 23 | 42 |
| NC(=O)c1ccc(-n2nc(C(F)(F)F)cc2-c2ccc3c(ccc4ccccc43)c2)cc1 [Compound 61, 4-[5-(2-Phenanthracenyl)-3-(trifluoromethyl)-1H-pyrazol-1-yl]-benzenecarboxamide] | 12 | 7 | – |
| N#Cc1ccc(-n2nc(C(F)(F)F)cc2-c2ccc3c(ccc4ccccc43)c2)cc1 [Compound 62, 4-[5-(2-Phenanthrenyl)-3-(trifluoromethyl)-1H-pyrazol-1-yl]-benzonitrile] | 45 | 30 | – |
| N=C(NO)c1ccc(-n2nc(C(F)(F)F)cc2-c2ccc3c(ccc4ccccc43)c2)cc1 [Compound 63, 4-[5-(2-Phenanthrenyl)-3-(trifluoromethyl)-1H-pyrazol-1-yl]-N-hydroxybenzamidine] | – | 25 | 40 |
| O/N=C/c1ccc(-n2nc(C(F)(F)F)cc2-c2ccc3c(ccc4ccccc43)c2)cc1 [Compound 65, 4-5[-(2-Phenanthrenyl)-3-(trifluoromethyl)-1H-pyraxol-1-yl]-benzaldehyde oxime] | – | 14 | – |
| NN=Cc1ccc(-n2nc(C(F)(F)F)cc2-c2ccc3c(ccc4ccccc43)c2)cc1 [Compound 66, 4-[5-(2-Phenanthrenyl)-3-(trifluoromethyl)-1H-pyrazol-1-yl]-benzaldehyde hydrazone] | 16 | 10 | – |
| N#CCc1ccc(-n2nc(C(F)(F)F)cc2-c2ccc3c(ccc4ccccc43)c2)cc1 [Compound 67, {4-[5-(2-Phenanthrenyl)-3-(trifluoromethyl)-1H-pyrazol-1-yl]-phenyl}-acetonitrile] | 42 | 25 | – |
| NC(Cc1ccc(-n2nc(C(F)(F)F)cc2-c2ccc3c(ccc4ccccc43)c2)cc1)=NO [Compound 68, 2-{4-[5-(2-Phenanthrenyl)-3-(trifluoromethyl)-1H-pyrazol-1-y]-phenyl}-N-hydroxy-acetamidine] | – | 8 | – |
| NC(=O)Nc1ccc(-n2nc(C(F)(F)F)cc2-c2ccc3c(ccc4ccccc43)c2)cc1 [Compound 72, 4-[5-(2-Phenanthrenyl)-3-(trifluoromethyl)-1H-pyrazol-1-yl]phenyl urea] | 40 | 24 | – |
